In ChEMBL document CHEMBL4602687, “Dual Binding to Orthosteric and Allosteric Sites Enhances the Anticancer Activity of a TRAP1-Targeting Drug” (J Med Chem, 2020) one finds inhibition, Activity and fold change (FC) data, which are given here for one compound.

The species named for one test is Homo sapiens. In words: Inhibition of recombinant full-length human TRAP1 W585/W4F mutant expressed in Escherichia coli BL21 (DE3) assessed as intrinsic fluorescence quenching of tryptophan residues at 10 uM measured after 1 hr by fluorescence spectrophotometric method.
In a further test the test system is LN-229. Put plainly: Cytotoxicity against human LN229 cells assessed as reduction in cell viability up to 3 uM measured after 24 hrs by MTT assay. The test is classed as functional, cell-based.
Test [1] deals with NCI-H460. In words: Antitumor activity against human NCI-H460 cells xenografted in nude mouse assessed as reduction in tumor cell proliferation at 5 mg/kg, ip administered daily by Ki67 staining based immunohistochemistry analysis. The test is classed as functional, organism-based. On the technique in general: Xenograft models place foreign cells or tissue in a host animal.
The target of test [2] is T1, Heat shock protein 75 kDa, mitochondrial (Homo sapiens) (UniProt Q12931).
T1 sequence (whole entry): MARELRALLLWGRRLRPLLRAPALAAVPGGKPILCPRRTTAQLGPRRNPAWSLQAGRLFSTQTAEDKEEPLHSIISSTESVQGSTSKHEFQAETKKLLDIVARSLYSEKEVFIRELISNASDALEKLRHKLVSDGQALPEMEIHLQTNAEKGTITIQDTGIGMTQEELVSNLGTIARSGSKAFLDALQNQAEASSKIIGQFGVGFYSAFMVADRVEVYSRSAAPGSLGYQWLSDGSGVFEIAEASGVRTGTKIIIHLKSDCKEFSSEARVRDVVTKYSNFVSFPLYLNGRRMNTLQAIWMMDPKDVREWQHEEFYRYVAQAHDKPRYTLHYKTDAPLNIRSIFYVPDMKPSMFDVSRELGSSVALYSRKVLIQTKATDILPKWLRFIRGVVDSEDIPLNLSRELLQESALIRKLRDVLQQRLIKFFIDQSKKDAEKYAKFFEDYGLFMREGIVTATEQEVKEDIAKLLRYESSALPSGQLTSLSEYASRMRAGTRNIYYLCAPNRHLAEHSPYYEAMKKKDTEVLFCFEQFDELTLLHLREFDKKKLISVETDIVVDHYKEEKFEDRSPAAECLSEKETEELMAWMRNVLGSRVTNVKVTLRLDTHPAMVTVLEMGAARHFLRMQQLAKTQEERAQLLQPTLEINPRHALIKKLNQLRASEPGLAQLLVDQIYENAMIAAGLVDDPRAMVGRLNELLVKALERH
Put plainly: Stimulation of recombinant wild-type human TRAP1 ATPase activity expressed in Escherichia coli BL21 (DE3) at 2 to 5 uM preincubated for 0.5 hrs followed by 0.2 mM ATP addition and measured after 3 hrs by PiColorLock Gold reagent based colorimetric assay relative to control.

Test [3] addresses T1, Heat shock protein 75 kDa, mitochondrial (Homo sapiens). In words: Inhibition of TRAP1 in human PC3 cells assessed as increase in reactive oxygen species generation at 10 uM measured after 2 hrs by Mito-SOX probe based flow cytometry. Type of test: cell-based. Conditions: PC-3. For orientation: Flow cytometry measures light scatter and fluorescence of single cells or particles in a stream.

The test system of test [4] is T2, Heat shock protein 75 kDa, mitochondrial (Homo sapiens), Q12931 [R114E,R402Q].
T2 sequence (whole entry): T1 sequence (whole entry) with R114E, R402Q
Put plainly: Stimulation of recombinant […] human TRAP1 R114E/R402Q mutant ATPase activity expressed in Escherichia coli BL21 (DE3) up to 20 uM preincubated for 0.5 hrs followed by ATP addition and measured after 3 hrs by PiColorLock Gold reagent based colorimetric assay.

For test [5], the system named is Mus musculus. In words: In vivo inhibition of TRAP1 in nude mouse xenografted with human NCI-H460 cells assessed as increase in SDHB degradation at 5 mg/kg, ip administered daily by Western blot analysis. Type of test: functional, organism-based.
Test [6] relates to NCI-H460. Put plainly: Cytotoxicity against human NCI-H460 cells assessed as reduction in cell viability up to 3 uM measured after 24 hrs by MTT assay. Type of test: functional, cell-based. A general note: Tetrazolium dyes change colour on reduction, which living cells bring about.
Test [7] relates to Mus musculus. In words: In vivo inhibition of TRAP1 in nude mouse xenografted with human NCI-H460 cells assessed as increase in AMPK phosphorylation at 5 mg/kg, ip administered daily by Western blot analysis. The test is classed as functional, organism-based.
For test [8], the system named is T3, Heat shock protein 75 kDa, mitochondrial (Homo sapiens), Q12931 [E115Q].
T3 sequence (whole entry): T1 sequence (whole entry) with E115Q
Put plainly: Inhibition of recombinant […] human TRAP1 E115Q mutant ATPase activity expressed in Escherichia coli BL21 (DE3) up to 20 uM preincubated for 0.5 hrs followed by ATP addition and measured after 3 hrs by PiColorLock Gold reagent based colorimetric assay.

Numbering of substitutions follows the chain as printed. Calls of active or inactive are those of the source. The calls are words filed in the database; no cut-off is given here.

In the case of `Nc1ncnc2c1nc(Sc1cc3c(cc1I)OCO3)n2CCCCCCCCCC[P+](c1ccccc1)(c1ccccc1)c1ccccc1`, the inhibition entry (in the test filed under Homo sapiens; in [3]; with Mus musculus [5]; in the test with Mus musculus [7]; in test [8]) was “Active” in each case. Besides, the result in the test on LN-229, with NCI-H460 [1] and in the test on NCI-H460 [6] was Active. Moreover, the fold change (FC) in [2] is 1.2. The result in [4] was inactive.
